Two compounds from patent US9102635B2, “Substituted bisphenyl butanoic acid derivatives as NEP inhibitors with improved in vivo efficacy” (NOVARTIS AG, priority 2013, dated 2015) can be followed below.

In one assay the target is T1, peripheral NEP (Rattus norvegicus, UniProt P07861).
T1 construct: from tissue; host or cells: whole animal: adult male Wistar Han rats (Charles River Labs), peripheral tissues
T1 sequence (P07861 1-750): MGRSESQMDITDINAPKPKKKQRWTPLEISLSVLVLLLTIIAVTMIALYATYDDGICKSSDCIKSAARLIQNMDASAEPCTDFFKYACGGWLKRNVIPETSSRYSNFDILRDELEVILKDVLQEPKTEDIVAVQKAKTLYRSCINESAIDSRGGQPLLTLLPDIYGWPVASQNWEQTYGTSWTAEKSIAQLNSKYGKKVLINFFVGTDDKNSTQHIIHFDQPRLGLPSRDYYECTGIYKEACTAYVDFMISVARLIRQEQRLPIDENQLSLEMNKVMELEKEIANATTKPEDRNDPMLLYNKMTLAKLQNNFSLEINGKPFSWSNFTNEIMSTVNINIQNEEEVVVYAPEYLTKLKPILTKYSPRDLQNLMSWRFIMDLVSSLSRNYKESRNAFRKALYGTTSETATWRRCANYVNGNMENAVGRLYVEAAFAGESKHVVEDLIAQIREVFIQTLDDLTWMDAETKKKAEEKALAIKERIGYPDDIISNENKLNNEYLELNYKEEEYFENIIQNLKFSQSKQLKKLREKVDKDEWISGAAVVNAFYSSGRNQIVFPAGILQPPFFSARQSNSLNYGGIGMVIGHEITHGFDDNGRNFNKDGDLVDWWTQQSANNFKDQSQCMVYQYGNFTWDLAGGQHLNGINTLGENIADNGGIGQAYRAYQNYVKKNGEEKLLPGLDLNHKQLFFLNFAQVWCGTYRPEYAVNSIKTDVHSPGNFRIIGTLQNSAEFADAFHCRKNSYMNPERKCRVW
The assay can be described thus: ANP potentiation model in conscious rats (plasma ANP after oral dose). It counts as in vivo, Wistar Han (WH) rats. As to conditions: for PANP % of baseline: 0- to 8-hr time-weighted average of plasma ANP, ANP infusion 450 ng/kg/min i.v. Here is the method:
In particular, the in vivo inhibition of recombinant human neutral endopeptidase can be determined as follows:
Thus, the potentiation of plasma ANP was used as an index of the extent and duration of inhibition of peripheral NEP by the orally administered compounds.
They were housed on a 12-hr light/dark cycle (light: 6 am to 6 pm) at temperature and relative humidity set points of 72° F. and 55%, respectively. […] In this case, the evening before the experiment (˜5 pm) all but two of the rat's chow pellets were removed. On the morning of the experiment, any remaining food was removed. […] Food was returned at the experiment terminus.
Rats were surgically instrumented with catheters to allow collection of arterial blood samples and intravenous (i.v.) administration of ANP. Rats were anesthetized and maintained in a surgical plane of anesthesia with isoflurane (2% in 100% oxygen). Ophthalmic lubricant was applied to each eye to prevent corneal irritation. Meloxicam (0.2 mg/kg s.c.) was administered for analgesia. If necessary for pain management, a second injection of meloxicam was administered on the first post-operative day. Also, a dose of penicillin G (50,000 U/kg i.m.) was administered pre-operatively to prevent infection.
Under aseptic surgical conditions, a femoral artery and vein were isolated and catheters inserted. Catheters consisted of a ˜55-cm length of Tygon (PVC) Microbore tubing (0.020″, 0.060″ O.D.) bonded with cyclohexanone to a 4.5-cm length of polyurethane (0.012″ I.D., 0.025″ O.D., Micro-Renathane type MRE-025, Braintree Scientific, Inc., Braintree, Mass.) tubing. The catheters were tunneled subcutaneously and exteriorized in the mid-dorsal thoracic/abdominal region. Catheters exited through a subcutaneously anchored tether/swivel system which allowed the animal to move unrestrained in a specialized Plexiglas cage with perforated solid flooring. Catheters were flushed with sterile 0.9% saline and locked with 200 U/mL heparin in sterile 0.9% saline after the surgery was completed.
The rats were allowed to recover for at least one week before being studied while conscious and unrestrained. Rats were infused intravenously (450 ng/kg/min) with rat ANP (ANP (1-28), Product #14-5-41, American Peptide Company, Inc., Sunnyvale, Calif.). After 1 hr of ANP infusion, rats were treated by oral gavage with 1 mL/kg of vehicle (0.5% methylcellulose+0.1% Tween 80) or a selected dose of NEP inhibitor. ANP infusion was continued for an additional 8 hr. Arterial blood samples (0.20 mL) were withdrawn from the femoral arterial cannulas at various times (baseline or time 0, 0.25, 0.5, 1, 2, 4, 6, and 8 hr) into a collection tube containing 0.004 mL EDTA/protease inhibitor (PI) cocktail. Blood samples were centrifuged at 4° C. and 20K g to separate plasma. Plasma samples were aliquoted and frozen (−70° C.) for later analysis of plasma ANP (PANP) levels. The O— to 8-hr time-weighted averages of the PANP concentrations expressed as a percent of the baseline (time 0) PANP values were used to generate dose-response relationships.
The blood collection cocktail consisted of broad-spectrum serine and cysteine PIs and EDTA. […] It also anticoagulated the blood.
The frozen plasma sample was thawed on ice and 10 μL of plasma was diluted 1:10 in 1× assay buffer supplied with the kit. Ten μL of the diluted sample was then assayed. The manufacturer's instructions were followed for the assay protocol (total volume per well was expanded to 50 μl with 1× assay buffer). Absorbance was read (Molecular Devices SpectraMax Paradigm Multi-Mode Detection Platform) at 450 nm within ten minutes of the assay termination.

The target of assay [1] is T2, recombinant human neutral endopeptidase (Homo sapiens, UniProt P08473).
T2 construct: made in house; host or cells: insect cells
The assay can be described thus: in vitro inhibition of recombinant human neutral endopeptidase (fluorescence lifetime assay). The class given is biochemical. As to conditions: 1 hour pre-incubation, 1 hour reaction, room temperature, pH 7.4; read-out: Human NEP IC50. The source says: The activity of a compound according to the present invention can be assessed by the following in vitro and in vivo methods and/or by the following in vitro and in vivo methods well-described in the art. See Doering K, Meder G, Hinnenberger M, Woelcke J, Mayr L M, Hassiepen U, (2009) “A fluorescence lifetime-based assay for protease inhibitor profiling on human kallikrein 7”, Biomol Screen, January; 14(1):1-9.
In particular, the in vitro inhibition of recombinant human neutral endopeptidase can be determined as follows:
Recombinant human neutral endopeptidase (expressed in insect cells and purified using standard methods, final concentration 7 pM) is pre-incubated with test compounds at various concentrations for 1 hour at room temperature in 10 mM sodium phosphate buffer at pH 7.4, containing 150 mM NaCl and 0.05% (w/v) CHAPS. The enzymatic reaction is started by the addition of a synthetic peptide substrate Cys(PT14)-Arg-Arg-Leu-Trp-OH to a final concentration of 0.7 μM. Substrate hydrolysis leads to an increase in fluorescence lifetime (FLT) of PT14 measured by means of a FLT reader as described by Doering et al. (2009) as referenced supra. The effect of the compound on the enzymatic activity was determined after 1 hour (t=60 min) incubation at room temperature. […]

A word on the IC50: it is the concentration needed to halve the response being measured.

The structures appear in SMILES notation.

T2 sequence (P08473 whole entry): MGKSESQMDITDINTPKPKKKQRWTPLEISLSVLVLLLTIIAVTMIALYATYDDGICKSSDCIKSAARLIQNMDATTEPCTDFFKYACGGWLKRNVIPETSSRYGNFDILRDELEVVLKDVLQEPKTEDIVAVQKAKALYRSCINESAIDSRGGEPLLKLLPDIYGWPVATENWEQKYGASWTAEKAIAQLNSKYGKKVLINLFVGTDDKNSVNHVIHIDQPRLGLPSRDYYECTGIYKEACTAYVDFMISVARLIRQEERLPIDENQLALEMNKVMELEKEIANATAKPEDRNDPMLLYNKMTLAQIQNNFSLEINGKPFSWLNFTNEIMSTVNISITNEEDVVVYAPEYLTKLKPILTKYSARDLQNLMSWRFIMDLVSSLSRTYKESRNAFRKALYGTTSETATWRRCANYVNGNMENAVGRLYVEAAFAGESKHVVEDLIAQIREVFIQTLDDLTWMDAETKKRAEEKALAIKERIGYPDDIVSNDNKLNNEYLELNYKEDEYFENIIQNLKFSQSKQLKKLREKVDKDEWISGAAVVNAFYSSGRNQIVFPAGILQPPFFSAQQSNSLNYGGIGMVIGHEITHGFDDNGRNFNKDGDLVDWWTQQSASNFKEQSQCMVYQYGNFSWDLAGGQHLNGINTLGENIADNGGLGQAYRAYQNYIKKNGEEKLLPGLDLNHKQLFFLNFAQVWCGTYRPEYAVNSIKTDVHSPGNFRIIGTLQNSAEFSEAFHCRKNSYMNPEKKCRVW

Turning to `COc1ccc(F)cc1-c1ccc(C[C@H](CC(=O)O)NC(=O)c2n[nH]c(=O)o2)cc1` [Example 1, (R)-4-(5′-fluoro-2′-methoxy-[1,1-biphenyl]-4-yl)-3-(5-oxo-4,5-dihydro-1,3,4-oxadiazole-2-carboxamido)butanoic acid], on peripheral NEP (ANP potentiation model, oral), the “in vivo efficacy compared to Example 5-46 of WO2010/136493” value is listed as “superior efficacy”. In addition, the “PANP % of baseline” value is on record as 141 % of baseline at peripheral NEP (dose 1 mg/kg oral gavage), 183 % of baseline on peripheral NEP (dose 3 mg/kg oral gavage) and 238 % of baseline at peripheral NEP (dose 10 mg/kg oral gavage). For the same compound, the IC50 in assay [1] is 0.06 nM.
For the compound `O=C(O)C[C@@H](Cc1ccc(-c2cccc(Cl)c2)cc1)NC(=O)c1n[nH]c(=O)o1` [Example 5-46 of WO2010/136493, reference compound], the “PANP % of baseline” value is given as 137 % of baseline on peripheral NEP (dose 3 mg/kg oral gavage), 126 % of baseline at peripheral NEP (dose 10 mg/kg oral gavage), 185 % of baseline on peripheral NEP (dose 30 mg/kg oral gavage) and 254 % of baseline on peripheral NEP (dose 100 mg/kg oral gavage).
